Test results: ChEMBL document CHEMBL4699440, “Comprehensive review on the anti-bacterial activity of 1,2,3-triazole hybrids” (Eur J Med Chem, 2019)
Values after ≈ are worked out from the molar mass of the structure shown. Numbered stars: 1 amine (or outer) side, 2 acyl side, 3 side chain; on linkers, the order of the positions; unused ones are H or OH. Square brackets hold non-standard residues; d marks the D form. Peptide text beside a SMILES is read from it. * marks the point of attachment. X1 = CC(C)(C(=O)c1ccc(C(F)(F)F)cc1)C(=O)*; βPro(3R) = O=C([C@@H]1CCN([*:1])C1)[*:2]; Phe(ol) = N[C@H](CO)Cc1ccccc1; Aib = CC(C)(N)C(=O)O

How the values were obtained:
[1] = test system: Pseudomonas aeruginosa; test: Antibacterial activity against Pseudomonas aeruginosa ATCC 25619 incubated for 24 hrs by broth microdilution method; type: functional
[2] = test system: Candida albicans; test: Antifungal activity against Candida albicans ATCC 2091 incubated for 24 hrs by broth microdilution method; type: functional
[3] = test system: Aspergillus niger; test: Antibacterial activity against Aspergillus niger ATCC 9029 incubated for 24 hrs by broth microdilution method; type: functional
[4] = test system: Escherichia coli; test: Antibacterial activity against Escherichia coli ATCC 25922 incubated for 24 hrs by broth microdilution method; type: functional
[5] = test system: Bacillus subtilis; test: Antibacterial activity against Bacillus subtilis ATCC 6051 incubated for 24 hrs by broth microdilution method; type: functional
[6] = test system: Staphylococcus aureus; test: Antibacterial activity against Staphylococcus aureus ATCC 12598 incubated for 24 hrs by broth microdilution method; type: functional
[7] = test system: Pseudomonas aeruginosa; test: Antibacterial activity against Pseudomonas aeruginosa assessed as inhibition zone at 1 mg/ml measured after overnight incubation by disc diffusion method; type: functional; settings: read-out: IZ
[8] = test system: Staphylococcus aureus; test: Antibacterial activity against Staphylococcus aureus assessed as inhibition zone at 1 mg/ml measured after overnight incubation by disc diffusion method; type: functional; settings: read-out: IZ
[9] = test system: Bacillus subtilis; test: Antibacterial activity against Bacillus subtilis assessed as inhibition zone at 1 mg/ml measured after overnight incubation by disc diffusion method; type: functional; settings: read-out: IZ
[10] = test system: Escherichia coli; test: Antibacterial activity against Escherichia coli assessed as inhibition zone at 1 mg/ml measured after overnight incubation by disc diffusion method; type: functional; settings: read-out: IZ
[11] = test system: KB; test: Cytotoxicity against human KB cells; type: cell-based; settings: Homo sapiens, KB
[12] = test system: Staphylococcus aureus; test: Antibacterial activity against Staphylococcus aureus; type: functional
[13] = test system: Bacillus cereus; test: Antibacterial activity against Bacillus cereus; type: functional

Structure (SMILES) | MIC [1] | MIC [2] | MIC [3] | MIC [4] | MIC [5] | MIC [6] | zone of inhibition at 1000 µg/mL [7] | zone of inhibition at 1000 µg/mL [8] | zone of inhibition at 1000 µg/mL [9] | zone of inhibition at 1000 µg/mL [10] | IC50 [11] | MIC [12] | MIC [13]
COc1ccc2oc(=O)cc(Cn3nnc(N)c3C#N)c2c1 | 25 µg/mL (≈ 84.1 µM) | 0.2 µg/mL (≈ 0.673 µM) | 0.2 µg/mL (≈ 0.673 µM) | 0.2 µg/mL (≈ 0.673 µM) | 25 µg/mL (≈ 84.1 µM) | 0.2 µg/mL (≈ 0.673 µM) |  |  |  |  |  |  | 
O=[N+]([O-])c1cccc(-n2cc(CNc3ccccc3-c3nnc(-c4ccccc4)o3)nn2)c1 |  |  |  |  |  |  | 2.5 mm | 2.5 mm | 2.5 mm | 2.5 mm |  |  | 
CC(=O)C(C)(C)C(=O)N1CC[C@@H](C(=O)NC(C)(C)C(=O)N[C@@H](C)C(=O)NC(C)(C)C(=O)N[C@@H](C)C(=O)N[C@@H](CCC(N)=O)C(=O)NC(C)(C)C(=O)N[C@H](C(=O)NC(C)(C)C(=O)NCC(=O)N[C@@H](CC(C)C)C(=O)NC(C)(C)C(=O)N2CCC[C@@H]2C(=O)N[C@H](C(=O)NC(C)(C)C(=O)NC(C)(C)C(=O)N[C@@H](CCC(N)=O)C(=O)N[C@@H](CCC(N)=O)C(=O)N[C@H](CO)Cc2ccccc2)C(C)C)C(C)C)C1 |  |  |  |  |  |  |  |  |  |  | 1.56 µg/mL (≈ 0.801 µM) | 1.56 µg/mL (≈ 0.801 µM) | 1.56 µg/mL (≈ 0.801 µM)
c1ccc(-c2nnc(-c3ccccc3NCc3cn(-c4ccccc4)nn3)o2)cc1 |  |  |  |  |  |  | 2.5 mm | 2.5 mm | 2.5 mm | 2.5 mm |  |  | 
Cc1ccccc1-n1cc(CNc2ccccc2-c2nnc(-c3ccccc3)o2)nn1 |  |  |  |  |  |  | 2.5 mm | 2.5 mm | 2.5 mm | 2.5 mm |  |  | 
Clc1cccc(-n2cc(CNc3ccccc3-c3nnc(-c4ccccc4)o3)nn2)c1 |  |  |  |  |  |  | 2.5 mm | 2.5 mm | 2.5 mm | 2.5 mm |  |  | 
Cc1ccc2c(Cn3nnc(N)c3C#N)cc(=O)oc2c1 | 25 µg/mL (≈ 88.9 µM) | 0.2 µg/mL (≈ 0.711 µM) | 0.2 µg/mL (≈ 0.711 µM) | 0.2 µg/mL (≈ 0.711 µM) | 25 µg/mL (≈ 88.9 µM) | 0.2 µg/mL (≈ 0.711 µM) |  |  |  |  |  |  | 
Cc1ccc2c(Cn3nnc(C)c3C(=O)O)cc(=O)oc2c1 | 25 µg/mL (≈ 83.5 µM) | 0.2 µg/mL (≈ 0.668 µM) | 0.2 µg/mL (≈ 0.668 µM) | 0.2 µg/mL (≈ 0.668 µM) | 25 µg/mL (≈ 83.5 µM) | 0.2 µg/mL (≈ 0.668 µM) |  |  |  |  |  |  | 
COc1ccc(-n2cc(CNc3ccccc3-c3nnc(-c4ccccc4)o3)nn2)c([N+](=O)[O-])c1 |  |  |  |  |  |  | 2.5 mm | 2.5 mm | 2.5 mm | 2.5 mm |  |  | 
COc1ccc2oc(=O)cc(Cn3nnc(C)c3C(=O)O)c2c1 | 25 µg/mL (≈ 79.3 µM) | 0.2 µg/mL (≈ 0.634 µM) | 0.2 µg/mL (≈ 0.634 µM) | 0.2 µg/mL (≈ 0.634 µM) | 25 µg/mL (≈ 79.3 µM) | 0.2 µg/mL (≈ 0.634 µM) |  |  |  |  |  |  | 
CCOC(=O)c1c(C)nnn1Cc1cc(=O)oc2c3c(ccc12)OCO3 | 25 µg/mL (≈ 70 µM) | 0.2 µg/mL (≈ 0.56 µM) | 0.2 µg/mL (≈ 0.56 µM) | 0.2 µg/mL (≈ 0.56 µM) | 25 µg/mL (≈ 70 µM) | 0.2 µg/mL (≈ 0.56 µM) |  |  |  |  |  |  | 
CCOC(=O)c1c(C)nnn1Cc1cc(=O)oc2cc(C)ccc12 | 25 µg/mL (≈ 76.4 µM) | 0.2 µg/mL (≈ 0.611 µM) | 0.2 µg/mL (≈ 0.611 µM) | 0.2 µg/mL (≈ 0.611 µM) | 25 µg/mL (≈ 76.4 µM) | 0.2 µg/mL (≈ 0.611 µM) |  |  |  |  |  |  | 
c1ccc(Cn2cc(CNc3ccccc3-c3nnc(-c4ccccc4)o3)nn2)cc1 |  |  |  |  |  |  | 2.5 mm | 2.5 mm | 2.5 mm | 2.5 mm |  |  | 
N#Cc1c(N)nnn1Cc1cc(=O)oc2c3c(ccc12)OCO3 | 25 µg/mL (≈ 80.3 µM) | 0.2 µg/mL (≈ 0.643 µM) | 0.2 µg/mL (≈ 0.643 µM) | 0.2 µg/mL (≈ 0.643 µM) | 25 µg/mL (≈ 80.3 µM) | 0.2 µg/mL (≈ 0.643 µM) |  |  |  |  |  |  | 
COc1ccccc1-n1cc(CNc2ccccc2-c2nnc(-c3ccccc3)o2)nn1 |  |  |  |  |  |  | 2.5 mm | 2.5 mm | 2.5 mm | 2.5 mm |  |  | 
CC1COc2c(N3CCN(C)CC3)c(F)cc3c(=O)c(C(=O)O)cn1c23 (configuration not stated) [OFLOXACIN] |  |  |  |  |  |  | 2.5 mm | 2.5 mm | 2.5 mm | 2.5 mm |  |  | 
Clc1ccc(-n2cc(CNc3ccccc3-c3nnc(-c4ccccc4)o3)nn2)cc1 |  |  |  |  |  |  | 2.5 mm | 2.5 mm | 2.5 mm | 2.5 mm |  |  | 
Cc1ccc2oc(=O)cc(Cn3nnc(C)c3C(=O)O)c2c1 | 25 µg/mL (≈ 83.5 µM) | 0.2 µg/mL (≈ 0.668 µM) | 0.2 µg/mL (≈ 0.668 µM) | 0.4 µg/mL (≈ 1.34 µM) | 25 µg/mL (≈ 83.5 µM) | 0.2 µg/mL (≈ 0.668 µM) |  |  |  |  |  |  | 
Fc1ccccc1-n1cc(CNc2ccccc2-c2nnc(-c3ccccc3)o2)nn1 |  |  |  |  |  |  | 2.5 mm | 2.5 mm | 2.5 mm | 2.5 mm |  |  | 
CC(C)C[C@H](NC(=O)CNC(=O)C(C)(C)NC(=O)[C@@H](NC(=O)C(C)(C)NC(=O)[C@H](CCC(N)=O)NC(=O)[C@H](C)NC(=O)C(C)(C)NC(=O)[C@H](C)NC(=O)C(C)(C)NC(=O)[C@@H]1CCN(C(=O)C(C)(C)C(=O)c2ccc(C(F)(F)F)cc2)C1)C(C)C)C(=O)NC(C)(C)C(=O)N1CCC[C@H]1C(=O)N[C@H](C(=O)NC(C)(C)C(=O)NC(C)(C)C(=O)N[C@@H](CCC(N)=O)C(=O)N[C@@H](CCC(N)=O)C(=O)N[C@H](CO)Cc1ccccc1)C(C)C (X1-[βPro(3R)][Aib]A[Aib]AQ[Aib]V[Aib]GL[Aib]PV[Aib][Aib]QQ[Phe(ol)]) |  |  |  |  |  |  |  |  |  |  |  | 1.56 µg/mL (≈ 0.751 µM) | 12.5 µg/mL (≈ 6.01 µM)
CCOC(=O)c1c(C)nnn1Cc1cc(=O)oc2ccc(C)cc12 | 25 µg/mL (≈ 76.4 µM) | 0.2 µg/mL (≈ 0.611 µM) | 0.2 µg/mL (≈ 0.611 µM) | 0.4 µg/mL (≈ 1.22 µM) | 25 µg/mL (≈ 76.4 µM) | 0.2 µg/mL (≈ 0.611 µM) |  |  |  |  |  |  | 
N#Cc1c(N)nnn1Cc1cc(=O)oc2ccc3c(c12)OCO3 | 25 µg/mL (≈ 80.3 µM) | 0.2 µg/mL (≈ 0.643 µM) | 0.2 µg/mL (≈ 0.643 µM) | 0.2 µg/mL (≈ 0.643 µM) | 25 µg/mL (≈ 80.3 µM) | 0.2 µg/mL (≈ 0.643 µM) |  |  |  |  |  |  | 
c1ccc(-c2nnc(-c3ccccc3NCc3cn(C4CCCCC4)nn3)o2)cc1 |  |  |  |  |  |  | 2.5 mm | 2.5 mm | 2.5 mm | 2.5 mm |  |  | 
CCOC(=O)c1c(C)nnn1Cc1cc(=O)oc2ccc3c(c12)OCO3 | 25 µg/mL (≈ 70 µM) | 0.2 µg/mL (≈ 0.56 µM) | 0.2 µg/mL (≈ 0.56 µM) | 0.2 µg/mL (≈ 0.56 µM) | 25 µg/mL (≈ 70 µM) | 0.2 µg/mL (≈ 0.56 µM) |  |  |  |  |  |  | 
Cc1ccc2oc(=O)cc(Cn3nnc(N)c3C#N)c2c1 | 25 µg/mL (≈ 88.9 µM) | 0.2 µg/mL (≈ 0.711 µM) | 0.2 µg/mL (≈ 0.711 µM) | 0.4 µg/mL (≈ 1.42 µM) | 25 µg/mL (≈ 88.9 µM) | 1.6 µg/mL (≈ 5.69 µM) |  |  |  |  |  |  | 
Cc1ccc(-n2cc(CNc3ccccc3-c3nnc(-c4ccccc4)o3)nn2)cc1 |  |  |  |  |  |  | 2.5 mm | 2.5 mm | 2.5 mm | 2.5 mm |  |  | 
Cc1nnn(Cc2cc(=O)oc3c4c(ccc23)OCO4)c1C(=O)O | 25 µg/mL (≈ 75.9 µM) | 0.2 µg/mL (≈ 0.607 µM) | 0.2 µg/mL (≈ 0.607 µM) | 0.2 µg/mL (≈ 0.607 µM) | 25 µg/mL (≈ 75.9 µM) | 0.2 µg/mL (≈ 0.607 µM) |  |  |  |  |  |  | 
Cc1nnn(Cc2cc(=O)oc3ccc4c(c23)OCO4)c1C(=O)O | 25 µg/mL (≈ 75.9 µM) | 0.2 µg/mL (≈ 0.607 µM) | 0.2 µg/mL (≈ 0.607 µM) | 0.2 µg/mL (≈ 0.607 µM) | 25 µg/mL (≈ 75.9 µM) | 0.2 µg/mL (≈ 0.607 µM) |  |  |  |  |  |  | 
c1ccc(-c2nnc(-c3ccccc3NCc3cn(-c4ccccc4-c4ccc(-c5nnco5)cc4)nn3)o2)cc1 |  |  |  |  |  |  | 2.5 mm | 2.5 mm | 2.5 mm | 2.5 mm |  |  | 
CCOC(=O)c1c(C)nnn1Cc1cc(=O)oc2ccc(OC)cc12 | 25 µg/mL (≈ 72.8 µM) | 0.2 µg/mL (≈ 0.583 µM) | 0.2 µg/mL (≈ 0.583 µM) | 0.2 µg/mL (≈ 0.583 µM) | 25 µg/mL (≈ 72.8 µM) | 0.2 µg/mL (≈ 0.583 µM) |  |  |  |  |  |  | 
